Key:
Assay in all cases: relative viability (nuclei count vs DMSO), 5 days (fraction); higher = more cells survive
[1] = compound: CC1=CC(=NN1)NC2=CC(=NC(=N2)/C=C/C3=CC=CC=C3)N4CCN(CC4)C + Cc1nc(Nc2ncc(C(=O)Nc3c(C)cccc3Cl)s2)cc(N2CCN(CCO)CC2)n1 [Dasatinib] (partner 0.075 µM)
Summary of the method: (§1)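 Five library-drug doses in √10 steps were combined with a fixed anchor-drug dose, or a single drug was given alone, by pin tool to lung cancer cell lines in 1536-well plates the day after seeding. Nuclei were stained and counted after 5 days. Relative viability is the nuclei count in treated wells over that in vehicle wells, taken as the median of duplicate plates.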

Obatoclax + Foretinib = compound: COC1=CC(c2cc3ccccc3[nH]2)=N/C1=C\c1[nH]c(C)cc1C [Obatoclax] + COc1cc2c(Oc3ccc(NC(=O)C4(C(=O)Nc5ccc(F)cc5)CC4)cc3F)ccnc2cc1OCCCN1CCOCC1 [Foretinib] (partner 0.25 µM)
Summary of the method: as §1

Obatoclax + Vorinostat = compound: COC1=CC(c2cc3ccccc3[nH]2)=N/C1=C\c1[nH]c(C)cc1C [Obatoclax] + O=C(CCCCCCC(=O)Nc1ccccc1)NO [Vorinostat] (partner 1 µM)
Summary of the method: as §1

[2] = compound: CC1=CC(=NN1)NC2=CC(=NC(=N2)/C=C/C3=CC=CC=C3)N4CCN(CC4)C + CCNC(=O)c1noc(-c2cc(C(C)C)c(O)cc2O)c1-c1ccc(CN2CCOCC2)cc1 [Luminespib] (partner 0.01 µM)
Summary of the method: as §1

Cell Line	relative viability ([1]; first compound 0.08 µM)	relative viability ([1]; first compound 0.253 µM)	relative viability ([1]; first compound 0.8 µM)	relative viability ([1]; first compound 2.53 µM)	relative viability ([1]; first compound 8 µM)	relative viability (Obatoclax + Foretinib; first compound 0.01 µM)	relative viability (Obatoclax + Foretinib; first compound 0.03162 µM)	relative viability (Obatoclax + Foretinib; first compound 0.1 µM)	relative viability (Obatoclax + Foretinib; first compound 0.3162 µM)	relative viability (Obatoclax + Foretinib; first compound 1 µM)	relative viability (Obatoclax + Vorinostat; first compound 0.01 µM)	relative viability (Obatoclax + Vorinostat; first compound 0.03162 µM)	relative viability (Obatoclax + Vorinostat; first compound 0.1 µM)	relative viability (Obatoclax + Vorinostat; first compound 0.3162 µM)	relative viability (Obatoclax + Vorinostat; first compound 1 µM)	relative viability ([2]; first compound 0.08 µM)	relative viability ([2]; first compound 0.253 µM)	relative viability ([2]; first compound 0.8 µM)	relative viability ([2]; first compound 2.53 µM)	relative viability ([2]; first compound 8 µM)
NCI-H2087	0.934	0.601	0.627	0.182	0.0767	1.21	1.05	1.1	0.324	0.465	0.61	0.81	0.931	0.671	0.723	0.209	0.212	0.158	0.119	0.136
COR-L 105	0.388	0.369	0.302	0.207	0.153	1.01	1.19	1.05	0.534	0.454	0.837	0.905	0.885	0.725	0.445	0.553	0.784	0.736	0.654	0.197
LCLC-97TM1	0.867	0.724	0.885	0.622	0.552	0.996	0.954	0.873	0.872	0.9	0.633	0.792	0.77	0.589	0.494	0.806	0.796	0.67	0.341	0.0891
NCI-H520	0.202	0.194	0.166	0.143	0.118	0.825	0.727	0.944	0.668	0.609	0.685	0.712	0.764	0.542	0.315	0.25	0.269	0.186	0.195	0.242
NCI-H1993	0.613	0.527	0.565	0.44	0.37	0.766	0.757	0.807	0.771	0.876	0.907	0.847	0.857	1.08	0.812	0.882	0.944	0.843	0.779	0.391
NCI-H1437	0.377	0.455	0.404	0.273	0.0967	1.22	1.28	1.21	1.16	1.25	0.834	0.808	0.791	0.696	0.589	1.11	1.13	1.13	0.996	0.53
LC-2-ad	0.611	0.367	0.257	0.182	0.134	0.997	0.876	0.869	0.897	0.525	0.677	0.669	0.647	0.658	0.445	1.11	1.23	0.693	0.611	0.204
HARA	0.26	0.236	0.221	0.183	0.0802	0.966	0.93	0.91	0.935	1	0.553	0.392	0.566	0.441	0.605	0.699	0.791	0.348	0.139	0.043
NCI-H1975	0.356	0.394	0.325	0.124	0.061	0.973	1.02		0.854	0.296	0.674	0.775	0.73	0.735	0.788	0.178	0.28	0.199	0.151	0.118
NCI-H2085	0.245	0.232	0.276	0.255	0.2	0.761	0.998	1.14	0.795	0.531	0.748	0.776	0.669	0.787	0.342	0.358	0.417	0.438	0.318	0.184
NCI-H3122	0.9	0.633	0.811	0.551	0.176	0.97	0.783	0.912	0.925	0.947	0.981	0.783	1.03	0.991	1.07	0.0829	0.0907	0.096	0.0908	0.0887
NCI-H522	0.94	0.795	0.662	0.482	0.388						0.891	0.794	0.793	0.967	0.973	0.957	0.995	1.15	0.845	0.507
NCI-H1563	0.462	0.463	0.497	0.432	0.288	0.903	0.91	1.04	0.824	0.806						0.498	0.554	0.537	0.553	0.434
NCI-H1703						0.379	0.309	0.301	0.382	0.303										
NCI-H1648											0.557	0.479	0.739	0.357	0.822					
HCC-78	0.444	0.436	0.469	0.234	0.221	0.532	0.53	0.608	0.553	0.59	0.384	0.441	0.551	0.438	0.527					
NCI-H1792	0.749	0.848	0.733	0.525	0.151											0.407	0.375	0.412	0.319	0.122
EBC-1						0.102	0.112	0.119	0.119	0.113										
NCI-H1299						1.08	1.12	1.08	1.08	1.05										
A549						0.958	0.947	0.979	0.959	0.764										
NCI-H1623	0.469	0.559	0.614	0.494	0.543	0.95	0.81	0.984	0.839	0.896						0.579	0.493	0.48	0.494	0.305
IA-LM						1.17	1.18	1.03	0.624	0.0739	0.993	0.89	1.05	0.905	1.11					

— the supplement of paper PMC10307832
